Data as given in US9163012B2, “Carbamate and urea inhibitors of 11β-hydroxysteroid dehydrogenase 1” (Vitae Pharmaceuticals, Inc., priority 2009, dated 2015).
Values joined by “and” are separate entries in the source; they are usually repeats but may differ in a detail not shown here. Equal entries are not always repeated. Where two headings read alike, the source gives them in different places.

Target: 11β-HSD1 (Homo sapiens (Human), UniProt P28845)
Experiment: Biological Test Example 1: inhibition of a microsomal preparation of 11β-HSD1 (SPA)
Assay type: biochemical
Conditions: for inhibition at 0.1 µM: read-out: Average % inhibition at 100 nM, Biological Test Example 1; for inhibition at 0.1 µM / Average % inhibition at 100 nM: 100 nM compound; for inhibition at 0.111 µM: read-out: Average % inhibition at 111 nM
Procedure: All reactions were carried out at rt in 96 well clear flexible PET Microbeta plates (PerkinElmer). […] After a 10 minute pre-incubation, 50 μL of enzyme solution containing microsomes isolated from CHO cells overexpressing human 11-HSD1 (10-20 μg/ml of total protein) was added, and the plates were incubated for 90 minutes at rt. The reaction was stopped by adding 50 μl of the SPA beads suspension containing 10 μM […], 5 mg/ml protein A coated YSi SPA beads (GE Healthcare) and 3.3 μg/ml of anti-cortisol antibody (East Coast Biologics) in Superblock buffer (Bio-Rad). The plates were shaken for 120 minutes at rt, and the SPA signal corresponding to [^3H]cortisol was measured on a Microbeta plate reader.

[1] = Biological Test Example 1, microsomes from CHO cells overexpressing human 11β-HSD1, read-out: IC50 Range
[2] = Biological Test Example 1, read-out: IC50

Sequence of 11β-HSD1 (P28845 whole entry): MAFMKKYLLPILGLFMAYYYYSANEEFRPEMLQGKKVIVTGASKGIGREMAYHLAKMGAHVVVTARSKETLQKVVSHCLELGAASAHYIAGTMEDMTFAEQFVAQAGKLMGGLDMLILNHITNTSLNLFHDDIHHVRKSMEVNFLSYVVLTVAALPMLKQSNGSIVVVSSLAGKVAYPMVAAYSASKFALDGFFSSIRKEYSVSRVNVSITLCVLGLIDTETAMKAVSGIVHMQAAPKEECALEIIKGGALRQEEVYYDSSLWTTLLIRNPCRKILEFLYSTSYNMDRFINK

Row | Structure (SMILES) | IC50 [1] | IC50 [2] | inhibition at 0.1 µM | Average % inhibition at 100 nM (Biological Test Example 1) | other results
1 | NC(=O)[C@]12CC3CC(C1)[C@@H](OC(=O)N1CCCC1c1ncc(Cl)cn1)C(C3)C2 (some centres unmarked) [EXAMPLE 45, 1-carbamoyl-4-adamantyl 2-(5-chloropyrimidin-2-yl)pyrrolidine-1-carboxylate] | < 100 nM | 13.5 nM | 87.5% | – | –
2 | N#Cc1ccc2[nH]c(=O)n([C@@H]3CCN(C(=O)O[C@H]4C5CC6CC4C[C@](C(N)=O)(C6)C5)C3)c2c1 [EXAMPLE 65, (R)-trans-1-carbamoyl-4-adamantyl 3-(6-cyano-2-oxo-2,3-dihydro-1H-benzo[d]imidazol-1-yl)pyrrolidine-1-carboxylate] | < 100 nM | 33.1 nM | 69% | – | –
3 | Cn1cc(-c2cnc(C3CCN(C(=O)OC4C5CC6CC4CC(C(N)=O)(C6)C5)C3)nc2)ccc1=O (single isomer, unassigned) [EXAMPLE 58 Isomer 2, 1-carbamoyl-4-adamantyl 3-(5-(1-methyl-6-oxo-1,6-dihydropyridin-3-yl)pyrimidin-2-yl)pyrrolidine-1-carboxylate] | > 100 nM | > 100 nM | – | 3.8% | –
4 | NC(=O)C12CC3CC(C1)C(OC(=O)N1CCC(c4ncc(F)cn4)C1)C(C3)C2 (single isomer, unassigned) [EXAMPLE 41 Isomer 1, 1-carbamoyl-4-adamantyl 3-(5-fluoropyrimidin-2-yl)pyrrolidine-1-carboxylate] | – | – | – | 92.3% | –
5 | Cc1ccc(C2CCN(C(=O)OC3C4CC5CC3CC(C(N)=O)(C5)C4)C2)nc1 (single isomer, unassigned) [EXAMPLE 35 Isomer 2, cis-1-carbamoyl-4-adamantyl 3-(5-methylpyridin-2-yl)pyrrolidine-1-carboxylate] | > 100 nM | > 100 nM | – | 8.1% | –
6 | CC(C)(O)CC1(c2ccccc2)CCN(C(=O)O[C@H]2C3CC4CC2C[C@](C(N)=O)(C4)C3)C1 (stereo partly drawn) [EXAMPLE 49, trans-1-carbamoyl-4-adamantyl 3-(2-hydroxy-2-methylpropyl)-3-phenylpyrrolidine-1-carboxylate] | < 100 nM | 2.07 nM | 91.6% | – | –
7 | Cc1cc(C)nc(C2CCN(C(=O)OC3C4CC5CC3CC(C(N)=O)(C5)C4)C2)n1 (single isomer, unassigned) [EXAMPLE 43 Isomer 1, trans-1-carbamoyl-4-adamantyl 3-(4,6-dimethylpyrimidin-2-yl)pyrrolidine-1-carboxylate] | < 100 nM | 5.72 nM | – | 86.5% | –
8 | Cc1ncc(C2CCN(C(=O)OC3C4CC5CC3CC(C(N)=O)(C5)C4)C2)cn1 (single isomer, unassigned) [EXAMPLE 36 Isomer 1, 1-carbamoyl-4-adamantyl 3-(2-methylpyrimidin-5-yl)pyrrolidine-1-carboxylate] | < 100 nM | 83.7 nM | – | 59.1% | –
9 | O=C(OC1C2CC3CC(C2)CC1C3)N1CCC(c2nc(-c3ccncc3)cs2)C1 (centres unmarked) [EXAMPLE 51, 2-adamantyl 3-(4-(pyridin-4-yl)thiazol-2-yl)pyrrolidine-1-carboxylate] | < 100 nM | 0.7 nM | 96.8% | – | –
10 | Cc1cnc(C2CCN(C(=O)OC3C4CC5CC3CC(C(N)=O)(C5)C4)C2)nc1 (single isomer, unassigned) [EXAMPLE 39 Isomer 2, 1-carbamoyl-4-adamantyl 3-(5-methylpyrimidin-2-yl)pyrrolidine-1-carboxylate] | > 100 nM | > 100 nM | – | 1.8% | –
11 | O=C(O)COCC1(c2ccccc2)CCN(C(=O)OC2C3CC4CC(C3)CC2C4)CC1 (centres unmarked) [EXAMPLE 16, 2-((1-(2-adamantyloxycarbonyl)-4-phenylpiperidin-4-yl)methoxy)acetic acid] | < 100 nM | 43.8 nM | – | – | inhibition at 0.111 µM (Biological Test Example 1, 111 nM compound): 72.3%
12 | NC(=O)[C@]12CC3CC(C1)[C@@H](OC(=O)N1CC[C@@H](Oc4ncc(F)cc4F)C1)C(C3)C2 (relative stereo) [EXAMPLE 1, (R)-(trans-(1-carbamoyl-4-adamantyl)) 3-(3,5-difluoropyridin-2-yloxy)pyrrolidine-1-carboxylate] | < 100 nM | 1.54 nM | – | 95.53% | –
13 | COC(=O)Cn1c(=O)n([C@H]2CCN(C(=O)O[C@H]3C4CC5CC3C[C@](C(N)=O)(C5)C4)C2)c2ccc(F)cc21 [EXAMPLE 72, (S)-trans-1-carbamoyl-4-adamantyl 3-(5-fluoro-3-(2-methoxy-2-oxoethyl)-2-oxo-2,3-dihydro-1H-benzo[d]imidazol-1-yl)pyrrolidine-1-carboxylate] | < 100 nM | 7.11 nM | 84.9% | – | –
14 | NC(=O)[C@]12CC3CC(C1)[C@@H](OC(=O)N1CC[C@@H](n4c(=O)[nH]c5cccc(Cl)c54)C1)C(C3)C2 [EXAMPLE 68, (R)-trans-1-carbamoyl-4-adamantyl 3-(7-chloro-2-oxo-2,3-dihydro-1H-benzo[d]imidazol-1-yl)pyrrolidine-1-carboxylate] | < 100 nM | 0.46 nM | 96.9% | – | –
15 | NC(=O)[C@]12CC3CC(C1)[C@@H](OC(=O)N1CC[C@H](n4c(=O)[nH]c5ccccc54)C1)C(C3)C2 [EXAMPLE 60, (S)-trans-1-carbamoyl-4-adamantyl 3-(2-oxo-2,3-dihydro-1H-benzo[d]imidazol-1-yl)pyrrolidine-1-carboxylate] | < 100 nM | 0.76 nM | 93.9% | – | –
16 | NC(=O)[C@]12CC3CC(C1)[C@@H](OC(=O)N1CC[C@H](n4c(=O)[nH]c5cccc(Cl)c54)C1)C(C3)C2 [EXAMPLE 67, (S)-trans-1-carbamoyl-4-adamantyl 3-(7-chloro-2-oxo-2,3-dihydro-1H-benzo[d]imidazol-1-yl)pyrrolidine-1-carboxylate] | < 100 nM | 0.68 nM | 97.7% | – | –
17 | Cn1c(=O)n([C@@H]2CCN(C(=O)O[C@H]3C4CC5CC3C[C@](C(N)=O)(C5)C4)C2)c2ncc(Cl)cc21 [EXAMPLE 29, (R) (trans-1-carbamoyl-4-adamantyl) 3-(6-chloro-1-methyl-2-oxo-1H-imidazo[4,5-b]pyridin-3(2H)-yl)pyrrolidine-1-carboxylate] | < 100 nM | 1 nM | 99.2% | – | –
18 | Cc1nnc(C2CCCN(C(=O)OC3C4CC5CC3CC(O)(C5)C4)C2)o1 (centres unmarked) [EXAMPLE 25, 1-hydroxy-4-adamantyl 3-(5-methyl-1,3,4-oxadiazol-2-yl)piperidine-1-carboxylate] | < 100 nM | 39.5 nM | 69.9% | – | –
19 | COC(=O)C1(c2ccccc2)CCN(C(=O)OC2C3CC4CC(C3)CC2C4)CC1 (centres unmarked) [EXAMPLE 11, 1-(2-adamantyl) 4-methyl 4-phenylpiperidine-1,4-dicarboxylate] | – | – | – | – | IC50 (IC50 Range): < 100 nM; inhibition at 0.111 µM: 86.3%; IC50 (read-out: IC50): 6.65 nM
20 | O=C(OC1C2CC3CC(C2)CC1C3)N1CCC(CO)(c2ccccc2)CC1 (centres unmarked) [EXAMPLE 30, 2-adamantyl 4-(hydroxymethyl)-4-phenylpiperidine-1-carboxylate] | < 100 nM | 13.2 nM and 4.44 nM | 87.4% | – | inhibition at 0.063 µM (Biological Test Example 1, Dose = 63 nM): 80.1%
21 | NC(=O)[C@]12CC3CC(C1)[C@@H](OC(=O)N1CC[C@@H](Oc4ccc5nccn5n4)C1)C(C3)C2 [EXAMPLE 3, (R)-(trans-(1-carbamoyl-4-adamantyl)) 3-(imidazo[1,2-b]pyridazin-6-yloxy)pyrrolidine-1-carboxylate] | < 100 nM | 6.39 nM | 92.1% | – | –
22 | Cn1ccc(-c2cnc(C3CCN(C(=O)OC4C5CC6CC4CC(C(N)=O)(C6)C5)C3)nc2)cc1=O (single isomer, unassigned) [EXAMPLE 57 Isomer 2, 1-carbamoyl-4-adamantyl 3-(5-(1-methyl-2-oxo-1,2-dihydropyridin-4-yl)pyrimidin-2-yl)pyrrolidine-1-carboxylate] | > 100 nM | > 100 nM | 18.1% | – | –
23 | Cc1cc(C2CCN(C(=O)OC3C4CC5CC3CC(C(N)=O)(C5)C4)C2)nn1C (single isomer, unassigned) [EXAMPLE 40 Isomer 1, 1-carbamoyl-4-adamantyl 3-(1,5-dimethyl-1H-pyrazol-3-yl)pyrrolidine-1-carboxylate] | < 100 nM | 6.88 nM | – | 90.8% | –
24 | NC(=O)[C@]12CC3CC(C1)[C@@H](OC(=O)N1CCC(c4ncc(Cl)cn4)C1)C(C3)C2 (single isomer, unassigned) [EXAMPLE 26 Isomer 1b, (1-carbamoyl-4-adamantyl) 3-(5-chloropyrimidin-2-yl)pyrrolidine-1-carboxylate] | < 100 nM | 1.91 nM | – | 84.2% | –
25 | NC(=O)[C@]12CC3CC(C1)[C@@H](OC(=O)N1CC[C@@H](Oc4ccc(C(F)(F)F)cn4)C1)C(C3)C2 [EXAMPLE 5, (R)-(trans-(1-carbamoyl-4-adamantyl)) 3-(5-(trifluoromethyl)pyridin-2-yloxy)pyrrolidine-1-carboxylate] | < 100 nM | 0.99 nM | 94.9% | – | –
26 | Cn1c(=O)n([C@@H]2CCN(C(=O)O[C@H]3C4CC5CC3C[C@](C(N)=O)(C5)C4)C2)c2ccccc21 [EXAMPLE 62, (R)-trans-1-carbamoyl-4-adamantyl 3-(3-methyl-2-oxo-2,3-dihydro-1H-benzo[d]imidazol-1-yl)pyrrolidine-1-carboxylate] | < 100 nM | 3.07 nM | 92.7% | – | –
